For orientation: pIC50 means the IC50 on a negative log10 scale, so that one unit is a factor of ten. Usually IC50 stands for the midpoint of a concentration-inhibition curve.

One test has as its system bromodomain. In words: at least one of the bromodomain cell assays of Example 57. The test is classed as cell-based. Particulars: read-out: IC50 in at least one of the bromodomain cell assays.
Another test addresses BRD4-BD1 (44-164) (Homo sapiens (Human), UniProt O60885). The test is described as follows: Alphascreen binding assay BRD4-BD1. The settings on record: BRD4(1) H4; read-out: Biochemical activity (IC50 μM) BRD4(1) H4. The essentials: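 AlphaScreen signal (nickel acceptor, streptavidin donor beads, 7.5 µg/ml each, read 30 min after addition) reports displacement of biotin-H4 K5/K8/K12/K16-acetyl peptide from His-BRD4 BD1 (44-164) or tandem BD12 (1-477).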
On the technique in general: Bead proximity is the source of the signal in Alpha formats.

In another test the target is BRD4-BD12 (1-477) (Homo sapiens (Human), UniProt O60885). The test is described as follows: Alphascreen binding assay BRD4-BD12. The settings on record: BRD4(1 2) H4; read-out: Biochemical activity (IC50 μM) BRD4(1 2) H4. The procedure, abridged: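 In this competition format, compounds displace a biotinylated tetra-acetyl H4 peptide from E. coli-expressed human BRD4 bromodomain constructs captured on nickel chelate beads. The reaction runs at pH 7.5 with 2 mM DTT and detergent for 1 h at room temperature before a 30 min bead step.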

Another test relates to MV-4-11 cells. In words: Oncology cell growth assay MV-4-11 (CellTiter Glo). It is filed as cell-based. The procedure, abridged: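 Growth read by CellTiter Glo luminescence after 72 h compound treatment of MLL-AF4-bearing MV-4-11 cells (3000/well). Titration: 8 points, 1:3 steps, maximum 10 μM, 0.2% DMSO final. Data normalized to DMSO wells, four-parameter fit gives pIC50.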
For orientation: In ATP-based viability assays light output follows the ATP content of the culture.

The mark [1] stands for this setting: at least one of the bromodomain cell assays described in Example 57.
[2] abbreviates: Homo sapiens, MV4-11, 72 h; read-out: Cell activity (IC50 μM) MV-4-11 3d-Growth.

The structures appear in SMILES notation. pIC50: −log10 of the molar value. Like-named read-outs stand apart in the source and are kept apart here. Bounds are passed on as bounds.

Consider `Cc1noc(C)c1-c1cnc2c(C#C[Si](C)(C)C)cn(C(C)c3ccccc3)c2c1` (stereo not shown) [P-0288, 2-[6-(3,5-dimethylisoxazol-4-yl)-1-(1-phenylethyl)pyrrolo[3,2-b]pyridin-3-yl]ethynyl-trimethyl-silane], for which the pIC50 in the test on bromodomain was > 5.00. Further, the IC50 on BRD4-BD1 (44-164) was < 1 µM; at BRD4-BD12 (1-477) it was < 1 µM; in the test on MV-4-11 cells (Homo sapiens, MV4-11, 72 h, read-out: Cell activity (IC50 μM) MV-4-11 3d-Growth) it was < 1 µM.

Regarding `C#Cc1cn(C(C)c2ccccc2)c2cc(-c3c(C)noc3C)cnc12` (stereo not shown) [P-0289, 4-[3-ethynyl-1-(1-phenylethyl)pyrrolo[3,2-b]pyridin-6-yl]-3,5-dimethyl-isoxazole], the pIC50 in the test on bromodomain (setting [1]) was > 5.00. The IC50 at BRD4-BD1 (44-164), on BRD4-BD12 (1-477) and with MV-4-11 cells (setting [2]) was < 1 µM throughout.

Turning to `Cc1noc(C)c1-c1cnc2c(Cl)cn(C(CC#N)C3CCCC3)c2c1` (stereo not shown) [P-0290, 3-[3-chloro-6-(3,5-dimethylisoxazol-4-yl)pyrrolo[3,2-b]pyridin-1-yl]-3-cyclopentyl-propanenitrile], in the test on bromodomain (setting [1]), the pIC50 was > 5.00. In addition, the IC50 at BRD4-BD1 (44-164), on BRD4-BD12 (1-477) and in the test on MV-4-11 cells (setting [2]) was < 1 µM in each case.

In the case of `Cc1nnn(C)c1-c1cnc2ccn(CC3CCC(F)(F)CC3)c2c1` [P-0291, l-[(4,4-difluorocyclohexyl)methyl]-6-(3,5-dimethyltriazol-4-yl)pyrrolo[3,2-b]pyridine], the pIC50 with bromodomain (setting [1]) was > 5.00. For the same compound, the figures for the IC50 at BRD4-BD1 (44-164), at BRD4-BD12 (1-477) and with MV-4-11 cells (setting [2]) were < 1 µM, 10 to 200 µM and 1 to 10 µM, respectively.

For `Cc1c(-c2cnc3ccn(CC4CCC(F)(F)CC4)c3c2)cnn1C` [P-0293, l-[(4,4-difluorocyclohexyl)methyl]-6-(1,5-dimethylpyrazol-4-yl)pyrrolo[3,2-b]pyridine], in the test on bromodomain (setting [1]), the pIC50 was > 5.00. The IC50 at BRD4-BD1 (44-164), on BRD4-BD12 (1-477) and in the test on MV-4-11 cells (setting [2]) was 10 to 200 µM each time.

As to `Cc1nc(C)c(-c2cnc3ccn(CC4CCC(F)(F)CC4)c3c2)s1` [P-0294, 5-[1-[(4,4-difluorocyclohexyl)methyl]pyrrolo[3,2-b]pyridin-6-yl]-2,4-dimethyl-thiazole], the pIC50 in the test on bromodomain (setting [1]) is > 5.00. The figures for the IC50 at BRD4-BD1 (44-164), on BRD4-BD12 (1-477) and in the test with MV-4-11 cells (setting [2]) were 10 to 200 µM, < 1 µM and 1 to 10 µM, respectively.

On to `Cc1noc(C)c1-c1cnc2c(-c3cnn(C4COC4)c3)cn(CC3CCC(F)(F)CC3)c2c1` [P-0295, 4-[1-[(4,4-difluorocyclohexyl)methyl]-3-[1-(oxetan-3-yl)pyrazol-4-yl]pyrrolo[3,2-b]pyridin-6-yl]-3,5-dimethyl-isoxazole], for which, in the test on bromodomain (setting [1]), the pIC50 was > 5.00. For the same compound, the IC50 on BRD4-BD1 (44-164), at BRD4-BD12 (1-477) and in the test with MV-4-11 cells (setting [2]) was < 1 µM each time.

With `Cc1noc(C)c1-c1cnc2c(-c3cnn(CCN4CCOCC4)c3)cn(CC3CCC(F)(F)CC3)c2c1` [P-0296, 4-[2-[4-[1-[(4,4-difluorocyclohexyl)methyl]-6-(3,5-dimethylisoxazol-4-yl)pyrrolo[3,2-b]pyridin-3-yl]pyrazol-1-yl]ethyl]morpholine], the pIC50 in the test with bromodomain (setting [1]) was > 5.00. Moreover, the IC50 at BRD4-BD1 (44-164), on BRD4-BD12 (1-477) and with MV-4-11 cells (setting [2]) was < 1 µM each time.

Consider `Cc1noc(C)c1-c1cnc2c(-c3cnn(CC(C)C)c3)cn(CC3CCC(F)(F)CC3)c2c1` [P-0297, 4-[1-[(4,4-difluorocyclohexyl)methyl]-3-(1-isobutylpyrazol-4-yl)pyrrolo[3,2-b]pyridin-6-yl]-3,5-dimethyl-isoxazole], for which the pIC50 with bromodomain (setting [1]) is > 5.00. Further, the IC50 at BRD4-BD1 (44-164), at BRD4-BD12 (1-477) and in the test with MV-4-11 cells (setting [2]) was < 1 µM in each case.

Turning to `Cc1noc(C)c1-c1cnc2c(-c3cnn(CCC#N)c3)cn(CC3CCC(F)(F)CC3)c2c1` [P-0298, 3-[4-[1-[(4,4-difluorocyclohexyl)methyl]-6-(3,5-dimethylisoxazol-4-yl)pyrrolo[3,2-b]pyridin-3-yl]pyrazol-1-yl]propanenitrile], the pIC50 in the test on bromodomain (setting [1]) is > 5.00. The IC50 at BRD4-BD1 (44-164), on BRD4-BD12 (1-477) and with MV-4-11 cells (setting [2]) was < 1 µM throughout.

As to `Cc1noc(C)c1-c1cnc2c(-c3cnn(Cc4ccccc4)c3)cn(CC3CCC(F)(F)CC3)c2c1` [P-0299, 4-[3-(1-benzylpyrazol-4-yl)-1-[(4,4-difluorocyclohexyl)methyl]pyrrolo[3,2-b]pyridin-6-yl]-3,5-dimethyl-isoxazole], in the test with bromodomain (setting [1]), the pIC50 is > 5.00. The IC50 at BRD4-BD1 (44-164), on BRD4-BD12 (1-477) and with MV-4-11 cells (setting [2]) was < 1 µM throughout.

Turning to `Cc1noc(C)c1-c1cnc2c(-c3c(C)nn(C)c3C)cn(C(C)c3ccccc3)c2c1` (stereo not shown) [P-0300, 3,5-dimethyl-4-[1-(1-phenylethyl)-3-(1,3,5-trimethylpyrazol-4-yl)pyrrolo[3,2-b]pyridin-6-yl]isoxazole], the negative logarithm of the IC50 (pIC50) in the test on bromodomain (setting [1]) is > 5.00. The IC50 at BRD4-BD1 (44-164), on BRD4-BD12 (1-477) and in the test on MV-4-11 cells (setting [2]) was < 1 µM throughout.

Regarding `Cc1noc(C)c1-c1cnc2c(-c3cnco3)cn(C(C)c3ccccc3)c2c1` (stereo not shown) [P-0301, 3,5-dimethyl-4-[3-oxazol-5-yl-1-(1-phenylethyl)pyrrolo[3,2-b]pyridin-6-yl]isoxazole], the pIC50 in the test on bromodomain (setting [1]) was > 5.00. Besides, the IC50 on BRD4-BD1 (44-164), on BRD4-BD12 (1-477) and in the test with MV-4-11 cells (setting [2]) was < 1 µM throughout.

As to `Cc1noc(C)c1-c1cnc2c(C#CCO)cn(C(C)c3ccccc3)c2c1` (stereo not shown) [P-0302, 3-[6-(3,5-dimethylisoxazol-4-yl)-1-(1-phenylethyl)pyrrolo[3,2-b]pyridin-3-yl]prop-2-yn-1-ol], the pIC50 with bromodomain (setting [1]) was > 5.00. For the same compound, the IC50 at BRD4-BD1 (44-164), on BRD4-BD12 (1-477) and in the test on MV-4-11 cells (setting [2]) was < 1 µM in each case.

Take `Cc1noc(C)c1-c1cnc2c(I)cn(CC3CC(F)(F)C3)c2c1` [P-0303, 4-[1-[(3,3-difluorocyclobutyl)methyl]-3-iodo-pyrrolo[3,2-b]pyridin-6-yl]-3,5-dimethyl-isoxazole]: the pIC50 with bromodomain (setting [1]) is > 5.00. In addition, the IC50 on BRD4-BD1 (44-164), on BRD4-BD12 (1-477) and in the test with MV-4-11 cells (setting [2]) was < 1 µM in each case.

With `Cc1noc(C)c1-c1cnc2c(-c3cnn(C(F)F)c3)cn(CC3CC(F)(F)C3)c2c1` [P-0304], the pIC50 in the test with bromodomain (setting [1]) is > 5.00. Besides, the IC50 at BRD4-BD1 (44-164), on BRD4-BD12 (1-477) and in the test on MV-4-11 cells (setting [2]) was < 1 µM in each case.

On to `Cc1noc(C)c1-c1cnc2c(-c3cnn(CC(F)(F)F)c3)cn(CC3CC(F)(F)C3)c2c1` [P-0305, 4-[1-[(3,3-difluorocyclobutyl)methyl]-3-[1-(2,2,2-trifluoroethyl)pyrazol-4-yl]pyrrolo[3,2-b]pyridin-6-yl]-3,5-dimethyl-isoxazole], for which, in the test with bromodomain (setting [1]), the pIC50 is > 5.00. Also, the IC50 on BRD4-BD1 (44-164), at BRD4-BD12 (1-477) and in the test on MV-4-11 cells (setting [2]) was < 1 µM in each case.

Take `Cc1noc(C)c1-c1cnc2c(Cl)cn(CC3CCC(F)(F)CC3)c2c1` [P-0306, 4-[3-chloro-1-[(4,4-difIuorocyclohexyl)methyl]pyrrolo[3,2-b]pyridin-6-yl]-3,5-dimethyl-isoxazole]: the pIC50 in the test with bromodomain (setting [1]) was > 5.00. The IC50 on BRD4-BD1 (44-164), on BRD4-BD12 (1-477) and in the test with MV-4-11 cells (setting [2]) was < 1 µM throughout.

With `Cc1noc(C)c1-c1cnc2c(Cl)cn(C(CC#N)C3CC3)c2c1` (stereo not shown) [P-0307, 3-[3-chloro-6-(3,5-dimethylisoxazol-4-yl)pyrrolo[3,2-b]pyridin-1-yl]-3-cyclopropyl-propanenitrile], in the test with bromodomain (setting [1]), the pIC50 is > 5.00. Further, the IC50 was < 1 µM on BRD4-BD1 (44-164), < 1 µM on BRD4-BD12 (1-477) and 1 to 10 µM in the test with MV-4-11 cells (setting [2]).

Consider `Cc1noc(C)c1-c1cnc2c(Br)cn(C(CC#N)C3CC3)c2c1` (stereo not shown) [P-0308, 3-[3-bromo-6-(3,5-dimethylisoxazol-4-yl)pyrrolo[3,2-b]pyridin-1-yl]-3-cyclopropxl-propanenitrile], for which, in the test on bromodomain (setting [1]), the pIC50 was > 5.00. Moreover, the IC50 at BRD4-BD1 (44-164), at BRD4-BD12 (1-477) and in the test with MV-4-11 cells (setting [2]) was < 1 µM throughout.

For the compound `Cc1noc(C)c1-c1cnc2c(I)cn(C(CC#N)C3CC3)c2c1` (stereo not shown) [P-0309, 3-cyclopropyl-3-[6-(3,5-dimethylisoxazol-4-yl)-3-iodo-pyrrolo[3,2-b]pyridin-1-yl]propanenitrile], the pIC50 in the test with bromodomain (setting [1]) was > 5.00. In addition, the IC50 at BRD4-BD1 (44-164), on BRD4-BD12 (1-477) and in the test with MV-4-11 cells (setting [2]) was < 1 µM in each case.

As for `Cc1nnn(C)c1-c1cnc2c(-c3cnn(C)c3)cn(CC3CCC(F)(F)CC3)c2c1` [P-0310, 1-[(4,4-difluorocyclohexyl)methyl]-6-(3,5-dimethyltriazol-4-yl)-3-(1-methylpyrazol-4-yl)pyrrolo[3,2-b]pyridine], in the test with bromodomain (setting [1]), the pIC50 is > 5.00. Also, the IC50 at BRD4-BD1 (44-164), at BRD4-BD12 (1-477) and with MV-4-11 cells (setting [2]) was < 1 µM throughout.

(Values after patent US10519177B2, “Heterocyclic compounds and uses thereof” (Plexxikon Inc., priority 2013, dated 2019).)
